The record followed here is patent US10975119B2, “Selective cysteine protease inhibitors and uses thereof” (Genesis Technologies Limited, priority 2011, dated 2021).

Values joined by “and” are separate entries in the source; they are usually repeats but may differ in a detail not shown here. Identical values can stand only once. Like-named read-outs stand apart in the source and are kept apart here.

What all share (assay type): biochemical
One experiment has as its target T1, Caspase-7 (Homo sapiens, UniProt P55210).
T1 construct: mixing the compounds with the respective active caspases; purchased BioVision K157-100
T1 sequence (P55210 24-198 limits assumed): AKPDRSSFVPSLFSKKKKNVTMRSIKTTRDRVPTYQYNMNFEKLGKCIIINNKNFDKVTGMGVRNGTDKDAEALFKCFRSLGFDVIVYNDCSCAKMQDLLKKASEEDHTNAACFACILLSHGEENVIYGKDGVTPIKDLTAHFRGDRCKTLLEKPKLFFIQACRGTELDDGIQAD
T1 sequence (P55210 207-303 limits assumed): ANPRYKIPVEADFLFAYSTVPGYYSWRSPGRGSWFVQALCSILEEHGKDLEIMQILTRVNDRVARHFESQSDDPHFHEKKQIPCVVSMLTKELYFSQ
Nature of the experiment: Caspase-7 inhibitor screening assay (BioVision kit, DEVD-AFC). The conditions noted are these: for inhibition at 10 µM: read-out: % Inhibition at 10 uM Casp7; for inhibition at 100 µM: read-out: % Inhibition at 100 uM Casp7; for IC50: read-out: IC50 Casp7. As for the experimental part:
(§1) The efficacy of an array of compounds as an inhibitor of the activity of Caspases 1 through 10 were assessed by using the respective Caspase Inhibitor Drug Screening Kits (Caspase-1 Catalog #: K151-100, Caspase-2 Catalog #: K152-100, Caspase-3 Catalog #: K153-100, Caspase-4 Catalog #: K154-100, Caspase-5 Catalog #: K155-100, Caspase-6 Catalog #: K156-100, Caspase-7 Catalog #: K157-100, Caspase-8 Catalog #: K158-100, Caspase-9 Catalog #: K159-100, Caspase-10 Catalog #: K160-100, BioVision) following the instructions of the manufacturer. […] Active caspases cleaved their respective synthetic substrates to release free AFC, which was then quantified by fluorometry.
(§2) Briefly, the compounds were first tested at 2 concentrations (10 uM and 100 uM final) to determine if there is a hit. […] Each condition was tested in duplicates. […] For some samples, a smaller range of concentrations was tested depending on the % Inhibition results at 10 uM and 100 uM. Results were summarized in Tables 2, 3, and 4 herein after. Table 2 represents the IC50 values (uM) of the test compounds as inhibitors of the activity of the various caspases.
(§3) (*) RFU (no inhibitor control)—RFU (compound at a specific concentration)
(§4) RFU (no inhibitor control)

The target in the next experiment is T2, Caspase-9 (Homo sapiens, UniProt P55211).
T2 construct: purchased BioVision K159-100
T2 sequence (P55211 1-315 limits assumed): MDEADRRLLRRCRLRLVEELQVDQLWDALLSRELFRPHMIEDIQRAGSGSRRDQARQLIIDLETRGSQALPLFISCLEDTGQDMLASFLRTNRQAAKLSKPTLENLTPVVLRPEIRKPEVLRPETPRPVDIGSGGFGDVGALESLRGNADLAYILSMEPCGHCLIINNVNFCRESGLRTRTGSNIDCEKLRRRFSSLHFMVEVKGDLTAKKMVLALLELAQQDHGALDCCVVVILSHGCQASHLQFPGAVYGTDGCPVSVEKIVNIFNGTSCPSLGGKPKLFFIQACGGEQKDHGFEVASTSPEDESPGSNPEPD
T2 sequence (P55211 331-416 limits assumed): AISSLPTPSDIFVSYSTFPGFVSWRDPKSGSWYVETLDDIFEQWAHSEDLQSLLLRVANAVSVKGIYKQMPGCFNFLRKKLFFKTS
Nature of the experiment: Caspase-9 inhibitor screening assay (BioVision kit, LEHD-AFC). The note with it: for inhibition at 10 µM: read-out: % Inhibition at 10 uM Casp9; for inhibition at 100 µM: read-out: % Inhibition at 100 uM Casp9. As for the experimental part: as §1, §2, §3, §4

The target in a further experiment is T3, Caspase-2 (Homo sapiens, UniProt P42575).
T3 construct: mixing the compounds with the respective active caspases; purchased BioVision K152-100
T3 sequence (P42575 170-325 limits assumed): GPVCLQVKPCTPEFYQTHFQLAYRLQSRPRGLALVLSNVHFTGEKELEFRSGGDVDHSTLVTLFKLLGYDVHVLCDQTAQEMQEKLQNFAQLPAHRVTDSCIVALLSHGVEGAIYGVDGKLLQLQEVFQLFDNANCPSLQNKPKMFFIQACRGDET
T3 sequence (P42575 334-452 limits assumed): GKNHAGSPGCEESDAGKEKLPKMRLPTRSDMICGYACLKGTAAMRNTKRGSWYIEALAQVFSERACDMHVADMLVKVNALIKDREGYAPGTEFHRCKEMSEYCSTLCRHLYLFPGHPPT
Nature of the experiment: Caspase-2 inhibitor screening assay (BioVision kit, VDVAD-AFC). The note with it: for inhibition at 10 µM: read-out: % Inhibition at 10 uM Casp2; for inhibition at 100 µM: read-out: % Inhibition at 100 uM Casp2; for IC50: read-out: IC50 Casp2. As for the experimental part:
as §1, §2, §3, §4

In the next experiment the target is T4, Caspase-4 (Homo sapiens, UniProt P49662).
T4 construct: mixing the compounds with the respective active caspases; purchased BioVision K154-100
T4 sequence (P49662 81-270 limits assumed): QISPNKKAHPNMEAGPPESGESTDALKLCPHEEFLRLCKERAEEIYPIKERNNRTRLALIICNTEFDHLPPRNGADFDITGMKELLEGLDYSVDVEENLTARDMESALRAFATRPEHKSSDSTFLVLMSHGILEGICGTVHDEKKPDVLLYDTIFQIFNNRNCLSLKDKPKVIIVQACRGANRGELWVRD
T4 sequence (P49662 290-377 limits assumed): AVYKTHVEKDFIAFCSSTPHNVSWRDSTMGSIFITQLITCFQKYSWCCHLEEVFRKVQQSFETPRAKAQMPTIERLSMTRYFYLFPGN
Nature of the experiment: Caspase-4 inhibitor screening assay (BioVision kit, LEVD-AFC). The note with it: for inhibition at 10 µM: read-out: % Inhibition at 10 uM Casp4; for inhibition at 100 µM: read-out: % Inhibition at 100 uM Casp4. As for the experimental part: as §1, §2, §3, §4

A further experiment concerns the target T5, Caspase-1 (Homo sapiens, UniProt P29466).
T5 construct: mixing the compounds with the respective active caspases; purchased BioVision K151-100
T5 sequence (P29466 120-297 limits assumed): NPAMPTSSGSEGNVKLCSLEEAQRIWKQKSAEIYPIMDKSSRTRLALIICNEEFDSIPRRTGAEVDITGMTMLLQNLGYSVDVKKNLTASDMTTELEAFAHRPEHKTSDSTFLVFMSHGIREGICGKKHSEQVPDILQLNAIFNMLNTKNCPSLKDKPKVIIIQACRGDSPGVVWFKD
T5 sequence (P29466 317-404 limits assumed): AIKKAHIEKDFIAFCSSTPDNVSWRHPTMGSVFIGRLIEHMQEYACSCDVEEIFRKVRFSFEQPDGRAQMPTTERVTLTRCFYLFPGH
Put plainly: Caspase-1 inhibitor screening assay (BioVision kit, YVAD-AFC). The note with it: for inhibition at 10 µM: read-out: % Inhibition at 10 uM Casp1; for inhibition at 100 µM: read-out: % Inhibition at 100 uM Casp1. As for the experimental part:
as §1, §2, §3, §4

Another experiment has as its target T6, Caspase-8 (Homo sapiens, UniProt Q14790).
T6 construct: mixing the compounds with the respective active caspases; purchased BioVision K158-100
Nature of the experiment: Caspase-8 inhibitor screening assay (BioVision kit, IETD-AFC). The conditions noted are these: for inhibition at 10 µM: read-out: % Inhibition at 10 uM Casp8; for inhibition at 100 µM: read-out: % Inhibition at 100 uM Casp8; for IC50: read-out: IC50 Casp8. As to the method:
as §1, §2, §3, §4

T6 sequence (Q14790 217-374 limits assumed): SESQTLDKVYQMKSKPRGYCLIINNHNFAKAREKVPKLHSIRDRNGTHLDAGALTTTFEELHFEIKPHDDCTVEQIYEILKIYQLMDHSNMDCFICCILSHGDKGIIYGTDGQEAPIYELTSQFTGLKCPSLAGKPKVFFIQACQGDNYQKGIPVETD
T6 sequence (Q14790 385-479 limits assumed): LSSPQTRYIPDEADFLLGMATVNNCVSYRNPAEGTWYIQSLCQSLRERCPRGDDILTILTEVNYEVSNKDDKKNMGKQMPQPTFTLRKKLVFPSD

Turning to `CC(C)(C)[C@H](NC(=O)c1ccc2ccccc2n1)C(=O)N1CC[C@@H]1C(=O)N[C@H](/C=C/S(C)(=O)=O)CC(=O)O` [Compound 20, 2-Quinoline carbonyl-t-Leu-(Azetidine-2-carbonyl)-Asp methyl vinyl sulfone], the inhibition at 10 µM amounted to 0% at Caspase-7; 8% on Caspase-9; 7% on Caspase-2; 85% at Caspase-4; 81% at Caspase-1; 8% at Caspase-8. The inhibition at 100 µM on Caspase-7 (100 uM) came to 0%; on Caspase-9 (100 uM), 44%; on Caspase-2 it was 6%; on Caspase-4, 100%; at Caspase-1, 99%; on Caspase-8 (100 uM), 23%. Also, the IC50 at Caspase-7 is greater than 100 µM; at Caspase-9 (read-out: IC50 Casp9), greater than 100 µM; at Caspase-2, greater than 100 µM; on Caspase-4 (read-out: IC50 Casp4), 1.56 µM; on Caspase-1 (read-out: IC50 Casp1), 1.4 µM; on Caspase-8 it was greater than 100 µM.

Consider `CC(C)[C@H](NC(=O)[C@H](Cc1cn(C)c2ccccc12)NC(=O)[C@H](CC(=O)O)NC(=O)OCc1ccccc1)C(=O)N[C@H](/C=C/S(C)(=O)=O)CC(=O)O` [Compound 36, Z-Asp-Trp(N-Me)-Val-Asp-methyl vinyl sulfone], for which the inhibition at 10 µM on Caspase-7 turned out to be 95%; at Caspase-9 it was 39%; on Caspase-2, 0%; at Caspase-4, 57%; at Caspase-1 it was 75%; on Caspase-8, 0%. The inhibition at 100 µM was found to be 99% at Caspase-7 (100 uM); 87% on Caspase-9 (100 uM); 19% at Caspase-2; 99% at Caspase-4; 94% on Caspase-1; 33% at Caspase-8 (100 uM). In addition, the half-inhibitory concentration (IC50) at Caspase-7 was 0.85 µM; on Caspase-9 (read-out: IC50 Casp9), 16.9 µM; on Caspase-2 it was greater than 100 µM; at Caspase-4 (read-out: IC50 Casp4) it was 9.02 µM; at Caspase-1 (read-out: IC50 Casp1), 3.8 µM; at Caspase-8, greater than 100 µM.

Regarding `CS(=O)(=O)/C=C/[C@H](CC(=O)O)NC(=O)C1CCCN1C(=O)[C@@H](NC(=O)[C@H](CC(=O)O)NC(=O)OCc1ccccc1)C1CC1` (stereo in doubt) [Compound 28, Z-Asp-Cyclopropylglycine-Pro-Asp-methyl vinyl sulfone], the inhibition at 10 µM at Caspase-7 came out at 87%; at Caspase-9, 54%; at Caspase-2, 22%; on Caspase-4, 73%; at Caspase-1, 49%; on Caspase-8 it was 20%. For the same compound, the inhibition at 100 µM on Caspase-7 (100 uM) amounted to 99%; at Caspase-9 (100 uM), 93%; on Caspase-2 it was 79%; on Caspase-4, 100%; on Caspase-1, 90%; on Caspase-8 (100 uM) it was 80%. For the same compound, the IC50 on Caspase-7 was 2.5 µM; on Caspase-9 (read-out: IC50 Casp9), 9.07 µM; at Caspase-2, 30.4 µM; at Caspase-4 (read-out: IC50 Casp4) it was 5.22 µM; on Caspase-1 (read-out: IC50 Casp1) it was 10.6 µM; at Caspase-8, 27.6 µM.

Consider `CC(C)(C)[C@H](NC(=O)c1ccc(N)c(Cl)c1)C(=O)N1CCCC1C(=O)N[C@H](/C=C/S(C)(=O)=O)CC(=O)O` (stereo in doubt) [Compound 14, 4-amino-3-chlorobenzene carbonyl-t-Leu-Pro-Asp methyl vinyl sulfone], for which the inhibition at 10 µM on Caspase-7 amounted to 13%; at Caspase-9, 77%; on Caspase-2, 1%; at Caspase-4, 100%; at Caspase-1 it was 99%; on Caspase-8, 46%. Moreover, the inhibition at 100 µM at Caspase-7 (100 uM) was 91%; on Caspase-9 (100 uM), 99%; on Caspase-2, 10%; on Caspase-4, 100%; on Caspase-1, 100%; on Caspase-8 (100 uM), 95%. In addition, the IC50 is 24.5 µM at Caspase-7; 2.3 µM at Caspase-9 (read-out: IC50 Casp9); 2.31 µM at Caspase-9 (read-out: potency (IC50) against caspase-9); greater than 100 µM at Caspase-2; 0.09 µM at Caspase-4 (read-out: IC50 Casp4); 0.087 µM at Caspase-4 (read-out: potency (IC50) against caspase-4). Also, the IC50 is 0.02 µM on Caspase-1 (read-out: IC50 Casp1); 0.019 µM at Caspase-1 (read-out: potency (IC50) against caspase-1); 12.8 µM and 12.9 µM at Caspase-8.

Consider `CC(C)[C@H](NC(=O)OCc1ccccc1)C(=O)N[C@H](/C=C(\Cl)S(C)(=O)=O)CC(=O)O` [Compound 2, Cbz-Val-Asp achlorovinyl methyl vinyl sulfone], for which the inhibition at 10 µM on Caspase-7 worked out at 3%; at Caspase-9, 16%; on Caspase-2, 0%; on Caspase-4, 0%; on Caspase-1, 0%; on Caspase-8, 2%. The “% Inhibition at 100 uM Casp7” value on Caspase-7 (100 uM) was determined as 72%. Further, the inhibition at 100 µM on Caspase-7 (100 uM) turned out to be 60%; on Caspase-9 (100 uM), 66%; at Caspase-2, 0%; at Caspase-4, 6%; at Caspase-1, 5%; on Caspase-8 (100 uM), 49%. In addition, the IC50 at Caspase-7 was 64.4 µM; at Caspase-9 (read-out: IC50 Casp9) it was 50.9 µM; at Caspase-2 it was greater than 100 µM; on Caspase-4 (read-out: IC50 Casp4) it was greater than 100 µM; at Caspase-1 (read-out: IC50 Casp1), greater than 100 µM; on Caspase-8 it was greater than 100 µM. Also, the “% Inhibition at 100 uM Casp9” value at Caspase-9 (100 uM) amounted to 70%. Besides, on Caspase-8 (100 uM), the “% Inhibition at 100 uM Casp8” value is on record as 33%.
